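Values below derive from 48-hour exposures of cells grown in 96-well plates, with endpoints linearly interpolated between the two concentrations bracketing the appropriate inhibition level. GI50: concentration for 50% inhibition of growth. Definition used: TGI = concentration required for complete inhibition of growth.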
How the values were obtained:
Assay in all cases: NCI tumour cell line growth inhibition, 48 h
[1] = test system: HT29 colon
[2] = test system: SK-MEL-5 melanoma
[3] = test system: K-562 leukemia
[4] = test system: BT-549 breast
[5] = test system: HL-60(TB) leukemia
[6] = test system: SK-OV-3 ovarian
[7] = test system: SF-268 CNS
[8] = test system: UACC-62 melanoma
[9] = test system: MOLT-4 leukemia
[10] = test system: HS 578T breast
[11] = test system: PC-3 prostate
[12] = test system: RPMI-8226 leukemia
[13] = test system: HCC-2998 colon
[14] = test system: MCF7 breast
[15] = test system: HCT-116 colon
[16] = test system: NCI-H23 lung
[17] = test system: T-47D breast
[18] = test system: MDA-MB-231 breast
[19] = test system: DU-145 prostate
[20] = test system: 786-0 renal
[21] = test system: SNB-75 CNS
[22] = test system: OVCAR-3 ovarian
[23] = test system: KM12 colon
[24] = test system: HCT-15 colon
[25] = test system: SW-620 colon
[26] = test system: A549 NSCLC
[27] = test system: SF-295 CNS
[28] = test system: SR leukemia
[29] = test system: EKVX NSCLC
[30] = test system: NCI-H522 lung
[31] = test system: NCI-H460 lung
[32] = test system: MALME-3M melanoma
[33] = test system: LOX IMVI melanoma
[34] = test system: NCI-H226 lung
[35] = test system: TK-10 renal
[36] = test system: OVCAR-8 ovarian
[37] = test system: MDA-N
[38] = test system: COLO 205 colon
[39] = test system: HOP-62 NSCLC
[40] = test system: SNB-19 CNS
[41] = test system: UO-31 renal
[42] = test system: IGROV1 ovarian
[43] = test system: SN12C renal
[44] = test system: NCI/ADR-RES ovarian
[45] = test system: OVCAR-5 ovarian
[46] = test system: ACHN renal
[47] = test system: SK-MEL-28 melanoma
[48] = test system: U251 CNS
[49] = test system: M14 melanoma
[50] = test system: OVCAR-4 ovarian
[51] = test system: SK-MEL-2 melanoma
[52] = test system: HOP-92 NSCLC
[53] = test system: MDA-MB-435
[54] = test system: CCRF-CEM leukemia
[55] = test system: A498 renal
[56] = test system: CAKI-1 renal
[57] = test system: SF-539 CNS
[58] = test system: UACC-257 melanoma
[59] = test system: RXF 393 renal

COc1cc(/C=C/C(=O)OC[C@]23O[C@H]2[C@@H](OC2OC(C)C(O)C(O)C2O)C2C=CO[C@@H](OC4OC(CO)C(O)C(O)C4O)C23)ccc1O (some centres undefined)
TGI [1]: > 100 µM
TGI [2]: > 100 µM
TGI [3]: > 100 µM
TGI [4]: > 100 µM
TGI [5]: > 100 µM
TGI [6]: > 100 µM
TGI [7]: > 100 µM
TGI [8]: > 100 µM
TGI [9]: > 100 µM
TGI [10]: > 100 µM
TGI [11]: > 100 µM
TGI [12]: > 100 µM
TGI [13]: > 100 µM
TGI [14]: > 100 µM
TGI [15]: > 100 µM
TGI [16]: > 100 µM
TGI [17]: > 100 µM
TGI [18]: > 100 µM
TGI [19]: > 100 µM
TGI [20]: > 100 µM
TGI [21]: > 100 µM
TGI [22]: > 100 µM
TGI [23]: > 100 µM
TGI [24]: > 100 µM
TGI [25]: > 100 µM
TGI [26]: > 100 µM
TGI [27]: > 100 µM
TGI [28]: > 100 µM
TGI [29]: > 100 µM
TGI [30]: > 100 µM
TGI [31]: > 100 µM
TGI [32]: > 100 µM
TGI [33]: > 100 µM
TGI [34]: > 100 µM
TGI [35]: > 100 µM
TGI [36]: > 100 µM
TGI [37]: > 100 µM
TGI [38]: > 100 µM
TGI [39]: > 100 µM
TGI [40]: > 100 µM
TGI [41]: > 100 µM
TGI [42]: > 100 µM
TGI [43]: > 100 µM
TGI [44]: > 100 µM
TGI [45]: > 100 µM
TGI [46]: > 100 µM
TGI [47]: > 100 µM
TGI [48]: > 100 µM
TGI [49]: > 100 µM
TGI [50]: > 100 µM
TGI [51]: > 100 µM
TGI [52]: > 100 µM
TGI [53]: > 100 µM

Clc1ccc2nc3c(c(-c4ccccc4)nn3-c3ccccc3)c(-c3ccccc3)c2c1
TGI [1]: > 100 µM
TGI [2]: > 100 µM
TGI [54]: > 100 µM
TGI [3]: > 100 µM
TGI [4]: > 100 µM
TGI [5]: > 100 µM
TGI [6]: > 100 µM
TGI [7]: > 100 µM
TGI [8]: > 100 µM
TGI [9]: > 100 µM
TGI [10]: > 100 µM
TGI [11]: > 100 µM
TGI [12]: > 100 µM
TGI [13]: > 100 µM
TGI [14]: > 100 µM
TGI [15]: > 100 µM
TGI [16]: > 100 µM
TGI [17]: > 100 µM
TGI [18]: > 100 µM
TGI [19]: > 100 µM
TGI [20]: > 100 µM
TGI [21]: > 100 µM
TGI [22]: > 100 µM
TGI [23]: > 100 µM
TGI [24]: > 100 µM
TGI [25]: > 100 µM
TGI [26]: > 100 µM
TGI [27]: > 100 µM
TGI [28]: > 100 µM
TGI [29]: > 100 µM
TGI [30]: > 100 µM
TGI [31]: > 100 µM
TGI [32]: > 100 µM
TGI [33]: > 100 µM
TGI [34]: > 100 µM
TGI [35]: > 100 µM
TGI [36]: > 100 µM
TGI [37]: > 100 µM
TGI [38]: > 100 µM
TGI [39]: > 100 µM
TGI [40]: > 100 µM
TGI [41]: > 100 µM
TGI [42]: > 100 µM
TGI [43]: > 100 µM
TGI [44]: > 100 µM
TGI [45]: > 100 µM
TGI [46]: > 100 µM
TGI [47]: > 100 µM
TGI [48]: > 100 µM
TGI [49]: > 100 µM
TGI [50]: > 100 µM
TGI [51]: > 100 µM
TGI [52]: > 100 µM
TGI [53]: > 100 µM

CC(=N\O)/C(C)=N/O.CC(=N\O)/C(C)=N/O.[Pd]
GI50 [1]: 2.77 µM
TGI [1]: 7.99 µM
GI50 [2]: 1.81 µM
TGI [2]: 4.04 µM
GI50 [54]: 2.04 µM
TGI [54]: 6.13 µM
GI50 [55]: 4.9 µM
TGI [55]: > 10 µM
GI50 [3]: > 10 µM
TGI [3]: > 10 µM
GI50 [4]: 8.49 µM
TGI [4]: > 10 µM
GI50 [5]: 4 µM
TGI [5]: > 10 µM
GI50 [6]: 7.62 µM
TGI [6]: > 10 µM
GI50 [7]: 6.95 µM
TGI [7]: > 10 µM
GI50 [8]: 2.11 µM
TGI [8]: 5.75 µM
GI50 [9]: > 10 µM
TGI [9]: > 10 µM
GI50 [10]: 1.94 µM
TGI [10]: > 10 µM
GI50 [11]: 4.73 µM
TGI [11]: > 10 µM
GI50 [12]: 7.39 µM
TGI [12]: > 10 µM
GI50 [13]: > 10 µM
TGI [13]: > 10 µM
GI50 [14]: 4.98 µM
TGI [14]: > 10 µM
GI50 [15]: 2.38 µM
TGI [15]: 4.79 µM
GI50 [56]: > 10 µM
TGI [56]: > 10 µM
GI50 [57]: 2.77 µM
TGI [57]: 6.1 µM
GI50 [16]: 2.6 µM
TGI [16]: 6.38 µM
GI50 [17]: 6.19 µM
TGI [17]: > 10 µM
GI50 [18]: 3.3 µM
TGI [18]: 9.03 µM
GI50 [19]: 6.48 µM
TGI [19]: > 10 µM
GI50 [20]: 3.31 µM
TGI [20]: 8.86 µM
GI50 [22]: 3.83 µM
TGI [22]: > 10 µM
GI50 [23]: 2.79 µM
TGI [23]: 8.01 µM
GI50 [24]: 2.44 µM
TGI [24]: 7.08 µM
GI50 [25]: 3.44 µM
TGI [25]: > 10 µM
GI50 [26]: 7.03 µM
TGI [26]: > 10 µM
GI50 [27]: > 10 µM
TGI [27]: > 10 µM
GI50 [28]: > 10 µM
TGI [28]: > 10 µM
GI50 [29]: 6.71 µM
TGI [29]: > 10 µM
GI50 [58]: 3.15 µM
TGI [58]: > 10 µM
GI50 [30]: 2.08 µM
TGI [30]: 5.03 µM
GI50 [31]: 9.28 µM
TGI [31]: > 10 µM
GI50 [32]: 1.9 µM
TGI [32]: 4.53 µM
GI50 [59]: 3.42 µM
TGI [59]: 7.42 µM
GI50 [33]: 1.58 µM
TGI [33]: 3.16 µM
GI50 [34]: > 10 µM
TGI [34]: > 10 µM
GI50 [35]: 4.57 µM
TGI [35]: > 10 µM
GI50 [36]: 1.84 µM
TGI [36]: 3.62 µM
GI50 [37]: 2.15 µM
TGI [37]: 4.87 µM
GI50 [38]: 3.84 µM
TGI [38]: > 10 µM
GI50 [39]: 5.62 µM
TGI [39]: > 10 µM
GI50 [40]: > 10 µM
TGI [40]: > 10 µM
GI50 [42]: 3.09 µM
TGI [42]: 9.16 µM
GI50 [43]: 8.65 µM
TGI [43]: > 10 µM
GI50 [44]: 3.18 µM
TGI [44]: 7.72 µM
GI50 [45]: 6.47 µM
TGI [45]: > 10 µM
GI50 [46]: > 10 µM
TGI [46]: > 10 µM
GI50 [47]: 3.87 µM
TGI [47]: 9.48 µM
GI50 [48]: 5.12 µM
TGI [48]: > 10 µM
GI50 [49]: 3.04 µM
TGI [49]: 8.55 µM
GI50 [50]: 4.72 µM
TGI [50]: > 10 µM
GI50 [51]: 3.31 µM
TGI [51]: 8.67 µM
GI50 [53]: 2.64 µM
TGI [53]: 5.43 µM

— PubChem BioAssay (NCI)
